Test results reported in patent US9949979B2, “Use of inhibitors of the activity or function of PI3K” (NOVARTIS AG, priority 2011, dated 2018).

Test system: TLR9
Experiment: TLR9-induced IFN-alpha in murine splenocytes (CpG1585, ELISA)
Assay type: cell-based, 129/Sv mice
Conditions: Mus musculus, Splenocyte; read-out: TLR9-ligand induced IFNα in murine splenocytes IC50
Procedure: 2.3 Determination of TLR9-Induced IFN-Alpha in Murine Splenocytes
Excess fat was trimmed from the spleens prior to mashing the spleen through a […] cell strainer using a plunger from a 5 ml syringe. A single cell suspension was prepared and the volume was adjusted to 15 ml in a 50 ml Falcon tube using cold PBS. Cells were centrifuged at 1500 rpm for 5 minutes at 4° C. degrees prior to removal of supernatant and re-suspension in 5 ml of red blood cell lysis buffer per spleen and incubation for 5 minutes at room temperature. Ice cold PBS (30 ml) was added to the cells prior to centrifugation at 1500 rpm for 5 minutes at 4° C. The supernatant was removed and the cells were washed twice with 40 ml of murine splenocyte culture media (MSCM). […] Cells were re-suspended in 10-20 ml of MSCM and counted using a Countess cell counter. […]
After overnight culture, cells were transferred to 96-well V-bottomed plates and centrifuged at 2000 rpm for 5 minutes at room temperature. Subsequently 150 μl of each culture supernatant was transferred to 96-well flat-bottomed plates and […] were measured using commercially available mouse IFN-alpha sandwich ELISA kit (PBL Interferon Source). […] IFN-alpha levels were measured within 5 minutes using a SpectraMax 190 Plate Reader (450 nm) and analyzed using SoftMax Pro and GraphPad Prism software.

IC50: > 2220 nM
SMILES: CCC(=O)N1CC[C@H](Nc2ncnc3c2CN(c2cnc(OC)c(C(F)(F)F)c2)CC3)C1 [Example 67, 1-{(S)-3-[6-(6-Methoxy-5-trifluoromethyl-pyridin-3-yl)-5,6,7,8-tetrahydro-pyrido[4,3-d]pyrimidin-4-ylamino]-pyrrolidin-1-yl}-propan-1-one]
